According to US10960007B2, “Pharmacologically active aryl-substituted pyrazolo[1,5-a]pyrimidine derivatives” (RICHTER GEDEON NYRT., priority 2017, dated 2021):
Read-outs that look alike come from different tables or passages of the source.

How the values were obtained:
[1] = molecular target: T1, GABAB receptor (Homo sapiens, UniProt O75899+Q9UBS5); conditions: compounds of Faghih et al., US 2016/0304527 A1; cited from earlier work
[2] = system: adult rats; assay: Foot shock-induced ultrasonic vocalization (USV) in adult rats; format: in vivo, rat; conditions: Rattus norvegicus, po; 10 mg/kg per os, 1 h before shocking, male Wistar rats
Procedure: Foot Shock-Induced Ultrasonic Vocalization (USV) in Adult Rats
(§1) Under stressful conditions, adult rats emit 22 kHz ultrasounds that can be reduced by various pharmacological treatments (De Vry et al, Eur. J. Pharmacol. 1993, 249, 331-339; Sanchez, Eur. J. Pharmacol. 2003, 463, 133-143). […] Therefore, a foot shock-induced vocalization paradigm in adult rats was used to assess in vivo efficacy of centrally acting GABAB receptor ligands. Behavioral measurements were carried out on male Wistar rats (200-250 g, Toxicoop, Hungary). Rats were housed in groups of four in plastic cages with a wire grid top in a temperature and light-controlled laboratory animal care unit (22±2° C., 12-h light/dark cycle, lights on at 6:00 AM) with ad libitum access to commercial pellet rat food and tap water. Investigations were approved by the Local Ethical Committee of Gedeon Richter Plc. and were carried out in strict compliance with the European Directive 2010/63/EU regarding the care and use of laboratory animals for experimental procedures and all efforts were made to minimize the number of animals as well as their suffering. In order to evoke emission of ultrasounds, animals were footshocked after a habituation period of 30 s (6 shocks, 1 s, 0.8 mA each, inter-shock interval 10 s) in a sound attenuated shocking chamber (Experimetria, 40×40×80 cm). […] Vocalizations were measured right after the last footshock for 10 min with a Metris Sonotrack system and the total time of vocalizations was registered. Vocalization of parallel vehicle treated animals was considered as control value and inhibition percent was calculated for each compound. At approximately 75 min after treatment and behavioral measurements, blood and brain samples were harvested in order to determine exposures associated with in vivo activity.

[3] = Plasma and brain exposure after USV measurement; format: in vivo; conditions: rat, per os, about 75 min after treatment, formulation Tween
Procedure: as §1

[4] = molecular target: T2, GABAB receptor (Rattus norvegicus, UniProt O88871+Q9Z0U4); assay: In vitro [35S]GTPγS binding assay in rat cortical membranes; format: biochemical
T2 construct: from tissue; host or cells: rat brain cortex membranes
Procedure: In Vitro [^35S]GTPγS Binding Assay in Rat Cortical Membranes
Cortices of freshly harvested rat brains were dissected on an ice-cold surface and homogenized by a glass Dounce homogeniser immediately in ice-cold buffer containing 50 mM Tris, 5 mM MgCl2 and 1 mM EDTA (pH=7.6). Tissue homogenates were centrifuged at 40000 g for 15 min at 4° C. Membrane pellets were resuspended in the same buffer and membranes were incubated for 10 min at 30° C. in a shaking water bath to eliminate endogenous GABA. Homogenates were centrifuged again under the same conditions. The final pellets were resuspended in ice-cold buffer (pH=7.6) containing 50 mM Tris, 100 mM NaCl, 7 mM MgCl2, 1 mM EDTA and 1 mM dithiotreithol (DTT) to yield a concentration of 20 mg tissue weight/ml and frozen at −70° C. until use. The assay was done in a buffer containing 50 mM Tris (pH=7.4), 100 mM NaCl, 7 mM MgCl2, 1 mM EDTA and 1 mM DTT. Each assay tube contained 150 μL GDP (in a final concentration of 50 μM), 100 μL ligand and 125 μL of the membrane suspension (250 μg tissue/tube). The assay tubes were preincubated for 10 min at 30° C. to assure equilibrium. Nonspecific binding was determined in the presence of 10 μM GTPγS; basal binding was determined in the presence of buffer only. After addition of […] [^35S]GTPγS in a volume of 25 μL to the tubes, membranes were incubated for an additional 60 min at 30° C. The assay was terminated by rapid filtration through Packard UniFilter GF/B using a Packard harvester and washed four times with 1 ml ice-cold buffer. After drying the filters at 40° C. for 1 h, 40 μL Microscint (Packard) was added to the filters and radioactivity of the filters was determined by a TopCount NXT (PerkinElmer, Waltham, Mass.; Alper and Nelson, Eur. J. Pharmacol. 1998, 343, 303-312; Rinken et al, Biochem. Pharmacol. 1999, 57, 155-162). Data thus gathered were used to determine PAM EC50 values for each compound as primary in vitro activity end point.

[5] = molecular target: T1, GABAB receptor; conditions: Perdona et al, Neuropharmacology 2011; read-out: EC50, positive modulation of EC20 GABA-evoked [35S]GTPγS binding signal; cited from earlier work
[6] = rat conventional liver microsomes; cited from earlier work
[7] = system: mice; conditions: cited from earlier work
[8] = human conventional liver microsomes; cited from earlier work
[9] = system: rats; conditions: significance only at high doses (30 and 100 mg/kg); cited from earlier work
[10] = mouse conventional liver microsomes; cited from earlier work

T1 sequence (O75899 42-941): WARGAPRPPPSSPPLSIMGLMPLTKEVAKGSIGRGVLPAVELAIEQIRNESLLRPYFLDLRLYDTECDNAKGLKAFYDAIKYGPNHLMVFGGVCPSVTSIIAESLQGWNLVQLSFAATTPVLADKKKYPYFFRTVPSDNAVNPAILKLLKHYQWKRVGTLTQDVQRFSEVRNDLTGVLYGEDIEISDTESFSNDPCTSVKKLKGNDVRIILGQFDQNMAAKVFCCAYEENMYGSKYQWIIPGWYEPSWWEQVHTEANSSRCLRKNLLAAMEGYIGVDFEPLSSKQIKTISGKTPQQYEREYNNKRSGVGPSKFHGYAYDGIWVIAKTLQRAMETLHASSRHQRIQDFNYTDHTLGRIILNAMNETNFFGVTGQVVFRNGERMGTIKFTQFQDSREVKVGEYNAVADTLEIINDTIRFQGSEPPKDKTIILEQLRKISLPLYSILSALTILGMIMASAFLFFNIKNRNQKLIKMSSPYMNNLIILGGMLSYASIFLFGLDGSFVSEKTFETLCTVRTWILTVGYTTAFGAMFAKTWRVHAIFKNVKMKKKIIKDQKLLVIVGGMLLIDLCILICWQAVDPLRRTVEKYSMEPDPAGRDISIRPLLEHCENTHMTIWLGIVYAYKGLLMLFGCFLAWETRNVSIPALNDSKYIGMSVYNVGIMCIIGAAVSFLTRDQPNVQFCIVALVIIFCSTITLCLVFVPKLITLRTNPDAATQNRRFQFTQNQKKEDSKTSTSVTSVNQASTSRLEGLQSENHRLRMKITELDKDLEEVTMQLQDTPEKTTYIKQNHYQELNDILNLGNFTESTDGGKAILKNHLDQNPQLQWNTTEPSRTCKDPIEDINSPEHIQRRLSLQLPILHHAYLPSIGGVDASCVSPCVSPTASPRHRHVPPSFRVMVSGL
T1 sequence (Q9UBS5 15-961 limits assumed): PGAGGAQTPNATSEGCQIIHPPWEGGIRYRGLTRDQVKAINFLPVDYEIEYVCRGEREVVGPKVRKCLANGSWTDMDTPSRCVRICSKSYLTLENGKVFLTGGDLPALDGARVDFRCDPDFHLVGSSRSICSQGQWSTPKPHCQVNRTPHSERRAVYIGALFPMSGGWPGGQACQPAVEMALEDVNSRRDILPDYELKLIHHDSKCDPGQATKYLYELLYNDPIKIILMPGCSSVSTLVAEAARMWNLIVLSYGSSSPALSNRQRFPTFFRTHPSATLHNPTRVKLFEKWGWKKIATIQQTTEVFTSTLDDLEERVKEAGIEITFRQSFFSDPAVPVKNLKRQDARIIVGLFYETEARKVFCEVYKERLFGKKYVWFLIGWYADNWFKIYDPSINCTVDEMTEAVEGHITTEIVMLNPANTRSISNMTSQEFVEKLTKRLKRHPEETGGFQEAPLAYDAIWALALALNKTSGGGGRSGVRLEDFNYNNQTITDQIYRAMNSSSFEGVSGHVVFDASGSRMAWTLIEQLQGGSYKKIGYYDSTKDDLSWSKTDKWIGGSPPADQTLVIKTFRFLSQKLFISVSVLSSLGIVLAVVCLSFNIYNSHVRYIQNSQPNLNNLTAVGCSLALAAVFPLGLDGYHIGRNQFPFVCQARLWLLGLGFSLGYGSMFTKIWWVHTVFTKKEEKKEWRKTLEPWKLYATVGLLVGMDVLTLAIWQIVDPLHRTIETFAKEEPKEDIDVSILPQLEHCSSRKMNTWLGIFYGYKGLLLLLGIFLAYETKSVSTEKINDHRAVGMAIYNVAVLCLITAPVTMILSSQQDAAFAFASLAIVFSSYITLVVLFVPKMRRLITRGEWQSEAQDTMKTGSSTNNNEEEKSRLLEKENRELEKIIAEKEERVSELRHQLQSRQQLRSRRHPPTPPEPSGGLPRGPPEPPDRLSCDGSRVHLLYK
T2 sequence (O88871 41-940): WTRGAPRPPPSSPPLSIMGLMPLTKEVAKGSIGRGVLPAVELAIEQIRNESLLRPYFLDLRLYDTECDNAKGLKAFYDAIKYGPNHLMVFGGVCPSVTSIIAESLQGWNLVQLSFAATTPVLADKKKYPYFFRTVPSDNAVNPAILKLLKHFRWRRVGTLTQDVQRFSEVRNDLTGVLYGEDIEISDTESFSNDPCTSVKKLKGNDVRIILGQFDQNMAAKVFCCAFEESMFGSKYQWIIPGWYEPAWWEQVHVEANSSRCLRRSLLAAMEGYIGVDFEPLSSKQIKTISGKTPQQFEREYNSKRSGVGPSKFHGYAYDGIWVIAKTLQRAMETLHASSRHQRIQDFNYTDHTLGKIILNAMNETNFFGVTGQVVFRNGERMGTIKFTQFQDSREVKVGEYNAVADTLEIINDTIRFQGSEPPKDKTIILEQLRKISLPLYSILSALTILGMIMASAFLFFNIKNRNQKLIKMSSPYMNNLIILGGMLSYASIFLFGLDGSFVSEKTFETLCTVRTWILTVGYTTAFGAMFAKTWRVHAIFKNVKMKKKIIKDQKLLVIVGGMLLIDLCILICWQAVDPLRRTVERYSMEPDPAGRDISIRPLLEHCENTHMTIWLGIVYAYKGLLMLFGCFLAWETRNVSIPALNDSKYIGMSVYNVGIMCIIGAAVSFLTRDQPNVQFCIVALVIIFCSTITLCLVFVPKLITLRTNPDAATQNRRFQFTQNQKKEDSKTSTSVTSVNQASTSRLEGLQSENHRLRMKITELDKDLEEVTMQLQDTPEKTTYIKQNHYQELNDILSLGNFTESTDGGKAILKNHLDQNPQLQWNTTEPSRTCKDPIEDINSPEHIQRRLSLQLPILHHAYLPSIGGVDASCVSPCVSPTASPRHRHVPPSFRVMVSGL
T2 sequence (Q9Z0U4 17-960 limits assumed): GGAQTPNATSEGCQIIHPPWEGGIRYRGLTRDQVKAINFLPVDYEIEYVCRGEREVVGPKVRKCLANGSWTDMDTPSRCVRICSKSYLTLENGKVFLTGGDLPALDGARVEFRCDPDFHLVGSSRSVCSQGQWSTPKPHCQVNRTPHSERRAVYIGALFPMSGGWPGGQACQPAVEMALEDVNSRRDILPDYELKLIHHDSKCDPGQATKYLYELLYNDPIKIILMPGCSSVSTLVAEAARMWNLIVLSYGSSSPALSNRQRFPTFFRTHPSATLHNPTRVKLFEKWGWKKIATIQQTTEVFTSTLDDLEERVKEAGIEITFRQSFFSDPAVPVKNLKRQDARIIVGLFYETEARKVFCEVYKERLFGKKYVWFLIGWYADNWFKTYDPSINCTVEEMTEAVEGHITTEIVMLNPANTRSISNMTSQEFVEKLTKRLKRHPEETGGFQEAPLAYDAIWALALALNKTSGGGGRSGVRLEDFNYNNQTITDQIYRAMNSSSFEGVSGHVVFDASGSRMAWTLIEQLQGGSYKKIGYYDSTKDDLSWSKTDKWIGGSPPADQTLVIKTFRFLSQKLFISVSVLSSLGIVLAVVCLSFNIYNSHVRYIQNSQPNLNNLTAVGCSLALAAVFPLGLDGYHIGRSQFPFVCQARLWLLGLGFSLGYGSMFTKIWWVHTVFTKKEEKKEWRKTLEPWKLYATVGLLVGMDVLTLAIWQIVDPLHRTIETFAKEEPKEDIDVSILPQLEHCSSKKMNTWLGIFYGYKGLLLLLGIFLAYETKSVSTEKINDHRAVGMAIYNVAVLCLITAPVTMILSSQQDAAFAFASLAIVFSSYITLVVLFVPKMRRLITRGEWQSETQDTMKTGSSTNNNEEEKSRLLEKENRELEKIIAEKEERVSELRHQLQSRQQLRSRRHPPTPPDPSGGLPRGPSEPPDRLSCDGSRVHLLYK

CCC(c1ccc(Cl)cc1)c1cc2nc(C)cc(N3CCCCC3CCO)n2n1 (stereo not drawn) [Example 3-1]
Binding potency (in words) [1]: nanomolar

COCC1(C(=O)O)CCCN(c2c(C(C)C)c(C)nc3cc(-c4ccc(C(F)(F)F)cc4F)nn23)C1 (stereo not drawn) [Example 17, 1-{2-[2-Fluoro-4-(trifluoromethyl)phenyl]-5-methyl-6-(propan-2-yl)pyrazolo[1,5-a]pyrimidin-7-yl}-3-(methoxymethyl)piperidine-3-carboxylic acid]
inhibition in vivo at 10 mg/kg [2]: 44%
Brain exposure at 1 mg/kg [3]: 144 ng/g
Plasma exposure at 1 mg/kg [3]: 443 ng/mL
EC50 ([4]; [35S]GTPγS binding, rat cortical membranes, read-out: In vitro PAM potency (PAM EC50)): 1 to 10 nM

Cc1cc(N2CCCCC2CCO)n2nc(-c3ccc(Cl)cc3)cc2n1 (stereo not drawn) [CMPPE, 2-{1-[2-(4-chlorophenyl)-5-methylpyrazolo[1,5-a]pyrimidin-7-yl]-2-piperidinyl}ethanol]
EC50 [5]: 2570 nM
Clint [6]: 0.31±0.07 mL/min/g liver
ED50, potentiation of baclofen-induced muscle relaxation [7]: 53.8 mg/kg
Clint [8]: 0.19±0.02 mL/min/g liver
Efficacy in food consumption test [9]: mild efficacy
Clint [10]: 1.18±0.4 mL/min/g liver
EC50 ([4]; applicant's test system, read-out: EC50 in our in vitro [35S]GTPγS test system): 611 nM
